Assay [1] deals with T1, His-tagged human Aurora A (Homo sapiens, UniProt O14965).
T1 construct: His (N); made in house; host or cells: Escherichia coli BL21-CodonPlus(DE3)-RIL
T1 sequence (O14965 1-403): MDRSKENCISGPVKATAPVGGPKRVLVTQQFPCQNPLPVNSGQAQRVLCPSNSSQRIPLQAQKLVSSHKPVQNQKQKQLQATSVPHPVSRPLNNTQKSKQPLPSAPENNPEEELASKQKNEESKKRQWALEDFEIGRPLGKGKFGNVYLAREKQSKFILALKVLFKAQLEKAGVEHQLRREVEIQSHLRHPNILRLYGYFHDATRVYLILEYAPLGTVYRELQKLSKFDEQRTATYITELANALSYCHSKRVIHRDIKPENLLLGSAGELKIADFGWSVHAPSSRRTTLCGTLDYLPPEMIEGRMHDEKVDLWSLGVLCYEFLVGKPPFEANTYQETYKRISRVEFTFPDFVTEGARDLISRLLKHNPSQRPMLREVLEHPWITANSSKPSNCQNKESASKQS
In words: Aurora A inhibitory activity (IMAP fluorescence polarization phosphorylation assay). It is filed as biochemical. As to conditions: 20 μM ATP, 100 nM peptide substrate, 30° C. for 120 minutes. From the text:
cDNA of N-terminal His-tagged human Aurora A was integrated into an expression vector, which was then highly expressed in Escherichia coli BL21-CodonPlus(DE3)-RIL cells. The Escherichia coli was harvested and lysed, and then the His-tagged human Aurora A protein was applied onto a nickel chelate column and eluted from the column with imidazole. The active fractions were desalted with a desalting column to give a purified enzyme.
For measurement of the activity of Aurora A, the substrate used was a synthetic peptide (5-FAM (5-carboxyfluorescein)-γ-aminobutyric acid-Ala-Leu-Arg-Arg-Ala-Ser-Leu-Gly-NH2) (SEQ.ID.NO.:1), which was purchased from Toray Research Center, Inc.
For the phosphorylation reaction, the method by Upstate, Inc. [Kinase Profiler™ Assay Protocols] was referred to, and phosphorylation of the substrate was detected using IMAP® technology (Molecular Devices, Co. Ltd.) (Gaudet E W. et. al, J. Biomol. Screen, 8, 164-175(2003)). Concretely, the phosphorylation reaction and the detection were carried out as follows:
The phosphorylation reaction was conducted using 384 well plate, and the reaction volume was 10 μl/well. The reaction buffer is comprised of 50 mM Tris-chloride buffer (pH 7.4), 15 mM magnesium acetate, and 0.2 mM ethylenediamine-N,N,N′,N′-tetraacetic acid (EDTA). Thereto, the purified Aurora A protein, 100 nM of the peptide substrate, and 20 μM of adenosine 5′-triphosphate (ATP) were added, and then the reaction was carried out at 30° C. for 120 minutes.
Thereafter, in order to terminate and detect the reaction, 30 μl of the IMAP (registered trademark) binding reagent (IMAP Progressive Binding Reagent, R7284) that had been diluted (1:400) in the lx IMAP binding buffer A (IMAP Progressive Binding Buffer A, 5× stock, R7282) was added to each well. The solution stood still for 60 minutes in the dark, and then fluorescence polarization was measured using a high-end microplate reader (excitation wavelength: 485 nm; emission wavelength: 520 nm).
The compound to be tested was added to the reaction system such that a dilution series of the compound in dimethylsulfoxide (DMSO) was prepared, and then 0.5 μL of this solution was added for the testing to each well. Each control well was provided by adding 0.5 μL of DMSO to the well in place of the DMSO solution containing the compound to be tested.
(§1) Using the above method (in the measurement of activity of Aurora B, Method A was used), the results for measurement of the activities of Aurora A and Aurora B were obtained as shown in Table 1. […] Similar results are obtained when Method B is used in the measurement of activity of Aurora B.
In general terms: In fluorescence polarisation assays a small probe gives low polarisation when free and higher when bound to something large.

Assay [2] concerns the target T2, GST-tagged human Aurora B(AurB)/His-tagged human INCENP complex proteins (Homo sapiens, UniProt Q96GD4).
T2 construct: GST; purchased Curia Biosciences, Inc
In words: Aurora B inhibitory activity, Method A (IMAP assay development kit). The format is biochemical. As to conditions: 40 μM ATP, 100 nM substrate, 25° C. for 45 minutes. The method, then:
An assay development kit for IMAP (registered trademark) (Aurora B), purchased from Curia Biosciences, Inc., was used for phosphorylation reaction, and the phosphorylation of a substrate was detected using the IMAP technology. The assay development kit used is comprised of an assay buffer, GST-tagged human Aurora B(AurB)/His-tagged human INCENP complex proteins (amino acid sequence: 803-916, AAU04398.1), and an ATP/substrate solution. Using the same, the phosphorylation reaction was conducted in accordance with a partially revised protocol attached to the kit, and then the phosphorylation of the substrate was detected using the IMAP technology.
For the phosphorylation reaction, 384 well plate was used, and the reaction volume was 10 μl/well. The composition of the reaction buffer (assay buffer) is comprised of 20 mM of HEPES buffer (pH 7.4), 0.01% Tween-20, and 2 mM of dithiothreitol (DTT). Thereto, AurB/INCENP complex protein, 100 nM of the substrate, and 40 μM of ATP, and 1 mM of magnesium salt were added, and then the reaction was conducted at 25° C. for 45 minutes. Thereafter, in order to terminate and detect the reaction, 30 μl of the IMAP (registered trademark) binding reagent (IMAP Progressive Binding Reagent, R7284) that had been diluted (1:400) in the lx IMAP binding buffer A (IMAP Progressive Binding Buffer A, 5× stock, R7282) was added to each well. The solution stood still for 60 minutes in the dark, and then fluorescence polarization was measured using a high-end microplate reader (excitation wavelength: 485 nm; emission wavelength: 520 nm).
The compound to be tested was added to the reaction system such that a dilution series of the compound in DMSO was prepared, and then 0.5 μL of this solution was added for the testing to each well. Each control well was provided by adding 0.5 μL of DMSO to the well in place of the DMSO solution containing the compound to be tested.
as §1

As usually defined, the IC50 is the concentration at which inhibition is half-maximal. Lower therefore signals inhibition by little substance.

Counter-ions that a name gives are not always drawn.

T2 sequence (Q96GD4 whole entry): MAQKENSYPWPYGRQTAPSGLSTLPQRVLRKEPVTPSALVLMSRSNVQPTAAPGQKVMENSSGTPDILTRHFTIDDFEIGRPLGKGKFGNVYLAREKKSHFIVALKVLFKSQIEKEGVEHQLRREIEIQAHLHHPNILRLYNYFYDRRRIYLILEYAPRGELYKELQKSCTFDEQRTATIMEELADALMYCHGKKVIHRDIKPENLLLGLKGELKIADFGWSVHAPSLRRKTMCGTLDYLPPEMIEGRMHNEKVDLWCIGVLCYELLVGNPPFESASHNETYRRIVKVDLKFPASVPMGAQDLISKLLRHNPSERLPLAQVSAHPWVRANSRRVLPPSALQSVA
T2 sequence (Q9NQS7 803-916 partner limits assumed): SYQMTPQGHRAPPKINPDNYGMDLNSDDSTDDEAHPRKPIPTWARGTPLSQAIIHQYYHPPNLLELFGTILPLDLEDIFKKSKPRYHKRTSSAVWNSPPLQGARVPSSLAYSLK

`Cc1cc(Nc2cc[nH]n2)nc(N2C[C@H](NC(=O)OC(C)(C)C)C[C@@H](C(=O)O)C2)n1` (relative stereo) [Example 6, trans-5-[(tert-butoxycarbonyl)amino]-1-[4-methyl-6-(1H-pyrazol-5-ylamino)pyrimidin-2-yl]piperidine-3-carboxylic acid]: the IC50 was 0.055 µM in assay [1] and more than 10 µM in assay [2].

For `Cc1cc(Nc2cc[nH]n2)nc(N2C[C@@H](NC(=O)OC(C)(C)C)C[C@@H](C(=O)O)C2)n1` (relative stereo) [Example 8, cis-5-[(tert-butoxycarbonyl)amino]-1-[4-methyl-6-(1H-pyrazol-5-ylamino)pyrimidin-2-yl]piperidine-3-carboxylic acid], the IC50 is 0.0091 µM in assay [1] and 7.39 µM in assay [2].

As for `Cc1cc(Nc2cc[nH]n2)nc(N2C[C@H](C(=O)O)C[C@H](c3ccccc3)C2)n1` (relative stereo) [Example 10, cis-1-[4-methyl-6-(1H-pyrazol-5-ylamino)pyrimidin-2-yl]-5-phenylpiperidine-3-carboxylic acid trifluoroacetate], the IC50 in assay [1] came out at 0.0078 µM; in assay [2], 7.91 µM.

As for `Cc1cc(Nc2cc[nH]n2)nc(N2C[C@H](C(=O)O)C[C@H](C3CCCCC3)C2)n1` (relative stereo) [Example 13, cis-5-cyclohexyl-1-[4-methyl-6-(1H-pyrazol-5-ylamino)pyrimidin-2-yl]piperidine-3-carboxylic acid trifluoroacetate], the IC50 turned out to be 0.0011 µM in assay [1] and 6.62 µM in assay [2].

On to `Cc1cc(Nc2cc(C3CC3)[nH]n2)nc(N2C[C@@H](C(=O)O)C[C@@H](C3CCCCC3)C2)n1` (stereo in doubt) [Example 20, (3S*,5S*)-5-cyclohexyl-1-{4-[(3-cyclopropyl-1H-pyrazol-5-yl)amino]-6-methylpyrimidin-2-yl}piperidine-3-carboxylic acid trifluoroacetate], for which the IC50 in assay [1] stood at 0.0024 µM; in assay [2] it was 1.15 µM.

On to `Cc1cc(Nc2cc(C3CC3)[nH]n2)nc(N2C[C@H](C(=O)O)C[C@H](C3CCCCC3)C2)n1` (stereo in doubt) [Example 21, (3R*,5R*)-5-cyclohexyl-1-{4-[(3-cyclopropyl-1H-pyrazol-5-yl)amino]-6-methylpyrimidin-2-yl}piperidine-3-carboxylic acid trifluoroacetate], for which the values for the IC50 in assay [1] and in assay [2] were 0.00081 µM and 0.275 µM, respectively.

In the case of `Cc1cc(Nc2cc(C3CC3)[nH]n2)nc(N2C[C@H](CC(=O)O)C[C@H](C3CCCCC3)C2)n1` (stereo in doubt) [Example 23, [(3S*,5R*)-5-cyclohexyl-1-{4-[(3-cyclopropyl-1H-pyrazol-5-yl)amino]-6-methylpyrimidin-2-yl}piperidin-3-yl]acetic acid], the IC50 in assay [1] stood at 0.004 µM; in assay [2], 2.68 µM.

Turning to `Cc1cc(Nc2cc(C3CC3)[nH]n2)nc(N2C[C@@H](CC(=O)O)C[C@@H](C3CCCCC3)C2)n1` (stereo in doubt) [Example 24, [(3R*,5S*)-5-cyclohexyl-1-{4-[(3-cyclopropyl-1H-pyrazol-5-yl)amino]-6-methylpyrimidin-2-yl}piperidin-3-yl]acetic acid], the concentration for half-maximal inhibition (IC50) in assay [1] was less than 0.0003 µM; in assay [2] it was 0.35 µM.

The record behind these values is patent US8367690B2, “Aminopyridine derivatives having aurora a selective inhibitory action” (Vertex Pharmaceuticals Inc., priority 2009, dated 2013).
